From patent US9623125B2, “Controlled synthesis of polyglutamates with low polydispersity and versatile architectures” (Fundacion de la Comunidad Valenciana “Centro De …, priority 2011, dated 2017)

Experiment: Stability of NCA under different storage conditions
Format: physicochemical
Set-up: key: a “−” symbol means the monomer was found already polymerized/degraded; “+” means monomer was found to be stable
Protocol: Absence of HCl in the purified NCAs was confirmed by means of a silver nitrate solution. The presence of HCl can be identified by the precipitation of silver chloride when some drops of a solution 1M of AgNO3 are added to a solution of the monomer. The purity of the NCA is the main criteria to ensure long term storage. This issue was corroborated with stability studies of the NCA under different storage conditions.

Stability of NCA on storage (4° C., 5 d): + | Stability of NCA on storage (4° C., 6 d): + | Stability of NCA on storage (4° C., 8d): − | Stability of NCA on storage (4° C., 10 d): − | Stability of NCA on storage (4° C., 11 d): − | Stability of NCA on storage (4° C., 20 d): − | Stability of NCA on storage (4° C., 50 d): − | Stability of NCA on storage (4° C./Ar, 5 d): + | Stability of NCA on storage (4° C./Ar, 6 d): + | Stability of NCA on storage (4° C./Ar, 7 d): + | Stability of NCA on storage (4° C./Ar, 8d): + | Stability of NCA on storage (4° C./Ar, 10 d): + | Stability of NCA on storage (4° C./Ar, 11 d): + | Stability of NCA on storage (R.T, 5 d): − | Stability of NCA on storage (R.T, 6 d): − | Stability of NCA on storage (R.T, 7 d): − | Stability of NCA on storage (R.T, 8d): − | Stability of NCA on storage (R.T, 10 d): − | Stability of NCA on storage (R.T, 11 d): − | Stability of NCA on storage (R.T, 20 d): − | Stability of NCA on storage (R.T, 50 d): − | Stability of NCA on storage (R.T/Ar, 6 d): − | Stability of NCA on storage (R.T/Ar, 7 d): − | Stability of NCA on storage (R.T/Ar, 8d): − | Stability of NCA on storage (R.T/Ar, 10 d): − | Stability of NCA on storage (R.T/Ar, 11 d): − | Stability of NCA on storage (R.T/Ar, 20 d): − | Stability of NCA on storage (R.T/Ar, 50 d): − | Stability of NCA on storage (−23° C., 5 d): + | Stability of NCA on storage (−23° C., 6 d): + | Stability of NCA on storage (−23° C., 7 d): + | Stability of NCA on storage (−23° C., 8d): + | Stability of NCA on storage (−23° C., 10 d): + | Stability of NCA on storage (−23° C., 11 d): + | Stability of NCA on storage (−23° C., 20 d): + | Stability of NCA on storage (−23° C., 50 d): + | Stability of NCA on storage (−23° C./Ar, 5 d): + | Stability of NCA on storage (−23° C./Ar, 6 d): + | Stability of NCA on storage (−23° C./Ar, 7 d): + | Stability of NCA on storage (−23° C./Ar, 8d): + | Stability of NCA on storage (−23° C./Ar, 10 d): + | Stability of NCA on storage (−23° C./Ar, 11 d): + | Stability of NCA on storage (−23° C./Ar, 20 d): + | Stability of NCA on storage (−23° C./Ar, 50 d): +
Structure (SMILES): O=C(CCC1NC(=O)OC1=O)OCc1ccccc1 (centres unmarked) [NCA, Benzyl 3-(2,5-dioxooxazol-4-il)propanoate]
